Reference: ChEMBL document CHEMBL1150650, “Bioactive constituents from Iryanthera megistophylla” (2002)
Converted amounts (≈) assume the structure as drawn. The source made the active and inactive calls. No cut-off for these calls is given here.

Legend:
Staphylococcus aureus [1] = experiment: Antimicrobial activity against Staphylococcus aureus at 200 ug/mL after 24 hrs by disk diffusion method; format: functional, organism-based
Candida albicans [2] = experiment: Antimicrobial activity against Candida albicans at 300 ug/mL after 24 hrs by disk diffusion method; format: functional, organism-based
Potato virus X = experiment: Antiviral activity against Potato virus X in half leaf of Chenopodium quinoa at 9.3 mg/mL after 10 days; format: functional; conditions: 240 h
[3] = target: Acetylcholinesterase (Homo sapiens) (UniProt P22303); experiment: Inhibition of acetylcholinesterase-mediated hydrolysis of acetylcholine at 0.8 mg/mL relative to galanthamine
Acetylcholinesterase (Homo sapiens), sequence (P22303 whole entry): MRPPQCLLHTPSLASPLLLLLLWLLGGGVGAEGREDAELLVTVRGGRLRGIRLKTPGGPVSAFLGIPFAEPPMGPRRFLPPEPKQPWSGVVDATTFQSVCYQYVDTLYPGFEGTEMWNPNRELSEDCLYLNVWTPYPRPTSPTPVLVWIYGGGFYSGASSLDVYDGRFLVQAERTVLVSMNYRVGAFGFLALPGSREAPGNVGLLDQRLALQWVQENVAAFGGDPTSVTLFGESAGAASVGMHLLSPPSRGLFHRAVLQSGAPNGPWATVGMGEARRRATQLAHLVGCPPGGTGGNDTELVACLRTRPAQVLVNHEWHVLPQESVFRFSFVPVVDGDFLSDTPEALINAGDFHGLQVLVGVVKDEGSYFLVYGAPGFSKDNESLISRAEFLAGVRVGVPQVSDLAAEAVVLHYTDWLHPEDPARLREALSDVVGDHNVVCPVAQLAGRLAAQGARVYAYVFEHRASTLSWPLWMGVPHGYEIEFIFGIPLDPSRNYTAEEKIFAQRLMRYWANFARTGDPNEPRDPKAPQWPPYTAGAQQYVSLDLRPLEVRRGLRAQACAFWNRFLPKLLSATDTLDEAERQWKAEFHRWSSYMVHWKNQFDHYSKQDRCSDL

Human alphaherpesvirus 1 = experiment: Antiviral activity against HSV1 in african green monkey Vero cells at 320 ug/mL; format: functional, organism-based
Candida albicans [4] = experiment: Antimicrobial activity against Candida albicans after 24 hrs by disk diffusion method; format: functional
Staphylococcus aureus [5] = experiment: Antimicrobial activity against Staphylococcus aureus after 24 hrs by disk diffusion method; format: functional

COc1ccc(-c2c(C)c(C)cc3ccc(O)cc23)cc1
MIC (Staphylococcus aureus [1]): inactive | MIC (Candida albicans [2]): inactive | inhibition at 9300 µg/mL (Potato virus X): 36% | inhibition [3]: 67.6% | MIC (Human alphaherpesvirus 1): inactive

O=C1C[C@H](c2ccc(O)c(O)c2)c2c(cc(O)c3c2O[C@H](c2ccc(O)c(O)c2)[C@H](O)[C@H]3c2c(O)cc(O)c3c2O[C@H](c2ccc(O)c(O)c2)[C@H](O)C3)O1 [CINCHONAIN IIA]
MIC (Candida albicans [4]): 150 µg/mL (≈ 203 µM) | MIC (Staphylococcus aureus [1]): inactive | inhibition at 9300 µg/mL (Potato virus X): 100% | MIC (Human alphaherpesvirus 1): inactive

C[C@@H]1OC(=O)[C@@H](CCCCCCCCCCCCCCCCCc2ccccc2)[C@@H]1O [GRANDINOLIDE]
MIC (Staphylococcus aureus [1]): inactive | MIC (Candida albicans [2]): inactive | inhibition at 9300 µg/mL (Potato virus X): 30% | MIC (Human alphaherpesvirus 1): inactive

COc1ccc(CCC(=O)c2c(OC)cc(O)c([C@@H](c3ccc(O)cc3)[C@@H](C)[C@H](C)Cc3ccc(O)cc3)c2O)cc1 [IRYANTHERIN K]
MIC (Candida albicans [2]): inactive | inhibition at 9300 µg/mL (Potato virus X): 89% | inhibition [3]: 77.4% | MIC (Staphylococcus aureus [5]): 50 µg/mL (≈ 87.6 µM)

COc1ccc(CCC(=O)c2c(OC)cc(O)c([C@H](c3ccc(O)cc3)[C@@H](C)[C@H](C)Cc3ccc(O)cc3)c2O)cc1 [IRYANTHERIN L]
MIC (Staphylococcus aureus [1]): inactive | MIC (Candida albicans [2]): inactive | inhibition at 9300 µg/mL (Potato virus X): 67% | MIC (Human alphaherpesvirus 1): inactive

CCCCCCCC/C=C\CCCCCCCCCCCCCCCC[C@H]1C(=O)O[C@H](C)[C@@H]1O [MEGISLACTONE]
MIC (Staphylococcus aureus [1]): inactive | MIC (Candida albicans [2]): inactive | inhibition at 9300 µg/mL (Potato virus X): 20% | MIC (Human alphaherpesvirus 1): inactive

Oc1cc(O)c2c(c1)O[C@H](c1ccc(O)c(O)c1)[C@H](O)[C@H]2c1c(O)cc(O)c2c1O[C@H](c1ccc(O)c(O)c1)[C@H](O)C2 [PROCYANIDIN B2]
MIC (Candida albicans [4]): 150 µg/mL (≈ 259 µM) | inhibition at 9300 µg/mL (Potato virus X): 98% | MIC (Staphylococcus aureus [5]): 100 µg/mL (≈ 173 µM)

O=c1c(O)c(-c2ccc(O)c(O)c2)oc2cc(O)cc(O)c12 [QUERCETIN]
inhibition at 9300 µg/mL (Potato virus X): 100%

NC(=O)c1ncn([C@@H]2O[C@H](CO)[C@@H](O)[C@H]2O)n1 [RIBAVIRIN]
inhibition at 9300 µg/mL (Potato virus X): 94%
